pIC50: −log10 of the molar value. Several values for one entry are separate records, joined by “and”; a condition that tells them apart may be missing. Equal values may be shown once. Read-outs that look alike come from different tables or passages of the source.
Experiments:
[1] = tested on: IL-1β-stimulated NO production, bovine chondrocyte pellets / ARC tissues; experiment: chondrocyte pellet culture model: total nitrite/nitrate (NO); format: cell-based; conditions: for NO production: 10 ng/ml IL-1β
Description: Calf articular cartilage was obtained from the knee joints of eight to twelve month old animals and was processed within twenty-four hours after sacrifice. After removal of muscle and ligament, the cartilage was kept moist using phosphate buffer solution (PBS) to prevent tissue dehydration, and was aseptically peeled off from subchondral bone with a scalpel, and the cartilage pieces were further minced into smaller pieces (˜0.3-0.5×˜0.2-0.5 cm cubes). […] Chondrocytes were then enzymatically isolated from the tissue by incubation for overnight at 37° C. with gentle agitation in 0.2% collagenase in Dulbecco's modified eagle media (DMEM). After removal of tissue debris by filtration through cell strainer and the residual collagenase by 3× wash in PBS, cells were finally resuspended at a density of 2.5×10^6 cells/ml in chondrocyte medium. A 1 ml aliquot of the cell suspension was dispensed into either a 15 ml Falcon centrifuge tube or a 96 deep-well plate and centrifuged at 2000×g for five minutes. The chondrocyte pellets were incubated at 37° C. in a humidified atmosphere of 5% CO2 for two to three weeks with a medium change every other day.
As an alternative to using calf articular cartilage, a commercial Alginate Recovered Chondrocytes (ARC) system was also used (Articular Engineering, LLC (Northbrook, Ill.)). Use of the commercial system cut down on labor and time in producing chondrocyte pellet. This system produced cartilaginous tissue in vitro using bovine chondrocytes. The first step consisted of culturing chondrocytes in alginate under conditions optimal for the formation of a cell-associated matrix (CM). The second step allowed these cells with their CM, after recovery, to rapidly form and become integrated into a solid mass of cartilage on a porous insert within two weeks. This tissue is rich in cells surrounded by a cell-associated matrix that is degraded rapidly when the cells are exposed to IL-1. ARC tissues in 3 mm punches at delivery were first dispensed into a 96 deep-well plate, one punch per well, for compound treatment. The subsequent procedures were the same as those used for the chondrocyte pellets.
Chondrocyte pellets were washed once with 1 ml of Chondrocyte Stimulation Medium and equilibrated in the same medium at room temperature for fifteen to thirty minutes. Compounds were dissolved in H2O, Ethanol or dimethyl sulfoxide (DMSO) (10^−2 M) according to suppliers' instructions and further diluted with Chondrocyte Stimulation Medium to the required concentrations. DMSO concentrations in the culture media should not exceed 1%; this concentration of DMSO has no effect on cartilage proteoglycan metabolism in response to cytokines.
The pellets were first treated with compounds at desired concentrations at 37° C. for one hour and then incubated for three to five days in the absence or presence of 10 ng/ml of IL-1β. At the end of the incubation, media and pellets were harvested and frozen for further analysis. Pellets were also fixed as needed in 4% (w/v) paraformaldehyde in PBS for histology analysis.
Nitrate/Nitrite levels were measured using the Griess reaction (Green L. C. et al., “Analysis of Nitrate, Nitrite, and [15N]nitrate in Biological Fluids,” Anal. Biochem. 126: 131-138 (1982)) with aNitrate/Nitrite Colorimetric Assay Kit (Cayman Chemicals), the contents of which are incorporated herein by reference. The assay involved a simple two-step process. The first step involved conversion of nitrate in 50 μl of culture medium to nitrite utilizing nitrate reductase in a reaction volume of 100 μl at room temperature for two hours. The second step involved the addition of 50 μl of both Griess Reagent 1 and 2, which converted nitrite into a deep purple azo compound in ten minutes. Photometric measurement of the absorbance at 540 or 550 nm due to this azo chromophore accurately determined nitrite concentration. […]

[2] = tested on: rabbit anterior cruciate ligament transection (ACLT) model of osteoarthritis; experiment: ACLT model, preventative dosing regimen (Example IX); format: in vivo; parameters: key to Trochlear Groove Erosion of Cartilage, mean score / Tibial Plateau # of Osteophytes (Medial), mean score: gross grading scale; higher score = more joint damage; key to All Condylar Effects (0-18), mean: score 0-18; higher = more joint damage
Procedure: 130 Female New Zealand white rabbits underwent ACLT on the right knee. Intra-articular injections were administered to the operated knee once per week for five weeks beginning either one or six weeks after the ACLT. All animals were euthanized one week after the administration of the fifth injection. Gross observations were made on the knee joints according to a predetermined grading scale. The stifle joints were removed. Samples were preserved in 10% neutral buffered formalin. The stifle joints were photographed using high-resolution photography.
The ACLT was performed according to the ACLT model discussed above. Animals were group housed in pens on the floor and left untreated for one week to allow healing of the surgical site. Then, once weekly for five weeks, intra-articular injections were administered. One week following the last injection, the animals were sacrificed. The total in-life portion of the preventative dosing regimen was […]. Previous studies have confirmed that the six week time-point allows sufficient degeneration changes to occur.
The study design consisted of an n=10 per group. A total of 160 μl was injected at each administration.
At the time of sacrifice the following parameters were evaluated grossly (the scale follows in parenthesis):
Each parameter was given a score. The combination of all parameters gave a Total Score (0-52). Additionally, combinations of the three subsets of data yielded scores for All Trochlear Groove Effects (0-10), All Condylar Effects (0-18) and All Tibial Plateau Effects (0-24). […] […] The grades that compose this parameter are trochlear groove thickness and erosion, all the grades in All Condylar Effects, and all grades listed under Tibial Plateau. A higher score indicates more damage to the joint. A lower score indicates less damage or more cartilage preservation in the joint. Individual results for each parameter assessed were tabulated.

## CC(=O)Oc1cccc2c1C(=O)c1c(OC(C)=O)cc(C(=O)O)cc1C2=O [Diacerein, reference compound]
[1]; diacerein at 5.4 μM, rhein at 0.35 μM
  NO production: significantly inhibited

## OCCC#Cc1nc(-c2ccc(F)cc2)c(-c2ccncc2)n1CCCc1ccccc1 [JNJ 3026582 (RWJ 67657), 4-[4-(4-fluorophenyl)-1-(3-phenylpropyl)-5-(4-pyridinyl)-1H-imidazol-2-yl]-3-butyn-1-ol]
[2]
  All Cartilage Effects (0-40), mean: 4.3+1.8 and 4.3
  All Condylar Effects (0-18), mean: 1.6 ± 1.3 and 1.6
  All Tibial Plateau Effects (0-24), mean: 3.7
  All Trochlear Groove Effects (0-10), mean: 6.6
  Femoral Condyle % Surface Area Erosion (Lateral), mean score: 0.4 ± 0.3 and 0.4
  Femoral Condyle % Surface Area Erosion (Medial), mean score: 0.5 ± 0.4 and 0.5
  Femoral Condyle Depth of Erosion (Lateral), mean score: 0.4 ± 0.3 and 0.4
  Femoral Condyle Depth of Erosion (Medial), mean score: 0.3+0.3 and 0.3
  Femoral Condyle Presence of Clefts, mean score: 0
  Tibial Plateau # of Osteophytes (Lateral), mean score: 0.6
  Tibial Plateau # of Osteophytes (Medial), mean score: 1.7
  Tibial Plateau % Surface Area Erosion (Lateral), mean score: 0.7
  Tibial Plateau % Surface Area Erosion (Medial), mean score: 0
  Tibial Plateau Depth of Erosion (Lateral), mean score: 0.7
  Tibial Plateau Depth of Erosion (Medial), mean score: 0
  Tibial Plateau Presence of Clefts (Lateral), mean score: 0
  Tibial Plateau Presence of Clefts (Medial), mean score: 0
  Total Score (0-52), mean: 11.9 ± 2.2 and 11.9
  Trochlear Groove # of Osteophytes, mean score: 2.8
  Trochlear Groove Erosion of Cartilage, mean score: 1.3
  Trochlear Groove Osteophyte Size, mean score: 2.5
  Trochlear Groove Thickening, mean score: 0

## C[C@H](Nc1nccc(-c2c(-c3ccc(F)cc3)nc3nc(N)ccn23)n1)c1ccccc1 [JNJ 7583979 (RWJ 351958)]
[1]; ARC
  NO production: significantly inhibited

## CC(=O)N1CCN(c2c(-c3ccncc3)c(-c3ccc(F)cc3)c(C#N)n2C)CC1 [JNJ 17089540 (RWJ 669307)]
[2]
  All Cartilage Effects (0-40), mean: 5.8+2.0 and 5.8
  All Condylar Effects (0-18), mean: 2.7 ± 1.3 and 2.7
  All Tibial Plateau Effects (0-24), mean: 4.1
  All Trochlear Groove Effects (0-10), mean: 6.2
  Femoral Condyle % Surface Area Erosion (Lateral), mean score: 1.2
  Femoral Condyle % Surface Area Erosion (Medial), mean score: 0.3+0.3 and 0.3
  Femoral Condyle Depth of Erosion (Lateral), mean score: 0.2+0.2 and 0.2
  Femoral Condyle Depth of Erosion (Medial), mean score: 0.2+0.2 and 0.2
  Femoral Condyle Presence of Clefts, mean score: 0
  Tibial Plateau # of Osteophytes (Lateral), mean score: 0.4
  Tibial Plateau # of Osteophytes (Medial), mean score: 1.4
  Tibial Plateau % Surface Area Erosion (Lateral), mean score: 1.3
  Tibial Plateau % Surface Area Erosion (Medial), mean score: 0
  Tibial Plateau Depth of Erosion (Lateral), mean score: 0.8
  Tibial Plateau Depth of Erosion (Medial), mean score: 0
  Tibial Plateau Presence of Clefts (Lateral), mean score: 0
  Tibial Plateau Presence of Clefts (Medial), mean score: 0
  Total Score (0-52), mean: 12.9 ± 2.3 and 12.9
  Trochlear Groove # of Osteophytes, mean score: 2.6
  Trochlear Groove Erosion of Cartilage, mean score: 1.0
  Trochlear Groove Osteophyte Size, mean score: 2.7
  Trochlear Groove Thickening, mean score: 0
[1]; Pellet Assay, read-out: NO Inhibition IC50
  pIC50: 5.31
[1]; bovine ARC, 7.5 ng/ml IL-1β, five days, read-out: NO IC50
  pIC50: 5.31

## CC(C(=O)O)c1ccc(C(=O)c2cccs2)cc1 (stereo not shown) [Suprofen, reference compound]
[2]
  All Cartilage Effects (0-40), mean: 6.8
  All Condylar Effects (0-18), mean: 4.1
  All Tibial Plateau Effects (0-24), mean: 3.1
  All Trochlear Groove Effects (0-10), mean: 7.1
  Femoral Condyle % Surface Area Erosion (Lateral), mean score: 2.1
  Femoral Condyle % Surface Area Erosion (Medial), mean score: 0.1+0.1 and 0.1
  Femoral Condyle Depth of Erosion (Lateral), mean score: 1.6
  Femoral Condyle Depth of Erosion (Medial), mean score: 0.3+0.3 and 0.3
  Femoral Condyle Presence of Clefts, mean score: 0
  Tibial Plateau # of Osteophytes (Lateral), mean score: 0.5
  Tibial Plateau # of Osteophytes (Medial), mean score: 1.1
  Tibial Plateau % Surface Area Erosion (Lateral), mean score: 0.9
  Tibial Plateau % Surface Area Erosion (Medial), mean score: 0
  Tibial Plateau Depth of Erosion (Lateral), mean score: 0.5
  Tibial Plateau Depth of Erosion (Medial), mean score: 0
  Tibial Plateau Presence of Clefts (Lateral), mean score: 0
  Tibial Plateau Presence of Clefts (Medial), mean score: 0
  Total Score (0-52), mean: 14.1
  Trochlear Groove # of Osteophytes, mean score: 2.8
  Trochlear Groove Erosion of Cartilage, mean score: 1.5
  Trochlear Groove Osteophyte Size, mean score: 2.8
  Trochlear Groove Thickening, mean score: 0
